Laboratory results from PubChem BioAssay (NCI).
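These data come from cells grown in 96-well plates and exposed to compound for 48 hours at five concentrations. At the GI50, growth is halved. TGI is the concentration that stops growth completely.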

Key:
Assay in all cases: DTP human tumour cell line panel, 48 h
[1] = tested on: RXF 393 renal
[2] = tested on: MALME-3M melanoma
[3] = tested on: OVCAR-4 ovarian
[4] = tested on: SK-OV-3 ovarian
[5] = tested on: HOP-62 NSCLC
[6] = tested on: SR leukemia
[7] = tested on: SF-295 CNS
[8] = tested on: PC-3 prostate
[9] = tested on: T-47D breast
[10] = tested on: SNB-75 CNS
[11] = tested on: HOP-92 NSCLC
[12] = tested on: ACHN renal
[13] = tested on: MOLT-4 leukemia
[14] = tested on: A549 NSCLC
[15] = tested on: OVCAR-5 ovarian
[16] = tested on: 786-0 renal
[17] = tested on: SK-MEL-5 melanoma
[18] = tested on: HCC-2998 colon
[19] = tested on: M14 melanoma
[20] = tested on: MCF7 breast
[21] = tested on: NCI-H460 lung
[22] = tested on: SK-MEL-2 melanoma
[23] = tested on: UACC-257 melanoma
[24] = tested on: UO-31 renal
[25] = tested on: COLO 205 colon
[26] = tested on: DU-145 prostate
[27] = tested on: NCI-H226 lung
[28] = tested on: HT29 colon
[29] = tested on: NCI/ADR-RES ovarian
[30] = tested on: LOX IMVI melanoma
[31] = tested on: NCI-H23 lung
[32] = tested on: UACC-62 melanoma
[33] = tested on: SF-539 CNS
[34] = tested on: NCI-H522 lung
[35] = tested on: HCT-116 colon
[36] = tested on: SF-268 CNS
[37] = tested on: SW-620 colon
[38] = tested on: MDA-MB-435
[39] = tested on: SK-MEL-28 melanoma
[40] = tested on: U251 CNS
[41] = tested on: OVCAR-3 ovarian
[42] = tested on: CAKI-1 renal
[43] = tested on: CCRF-CEM leukemia
[44] = tested on: TK-10 renal
[45] = tested on: BT-549 breast
[46] = tested on: KM12 colon
[47] = tested on: HL-60(TB) leukemia
[48] = tested on: EKVX NSCLC
[49] = tested on: IGROV1 ovarian
[50] = tested on: A498 renal
[51] = tested on: HS 578T breast
[52] = tested on: K-562 leukemia
[53] = tested on: RPMI-8226 leukemia
[54] = tested on: OVCAR-8 ovarian
[55] = tested on: SN12C renal
[56] = tested on: MDA-MB-231 breast
[57] = tested on: SNB-19 CNS
[58] = tested on: HCT-15 colon

O=C(Nc1ccc(N2CCNCC2)cc1)c1[nH]ncc1Nc1cc(Oc2ccccc2)ncn1
GI50 [1]: 1.75 µM
TGI [1]: 3.33 µM
GI50 [2]: 1.98 µM
TGI [2]: 4.93 µM
GI50 [3]: 2.59 µM
GI50 [4]: 1.99 µM
TGI [4]: 4.84 µM
GI50 [5]: 2.24 µM
TGI [5]: 6.05 µM
GI50 [6]: 0.299 µM
TGI [6]: 1.84 µM
GI50 [7]: 1.7 µM
TGI [7]: 3.27 µM
GI50 [8]: 1.47 µM
TGI [8]: 3.2 µM
GI50 [9]: 2.46 µM
TGI [9]: 8.09 µM
GI50 [10]: 2.45 µM
TGI [10]: 5.6 µM
GI50 [11]: 2.35 µM
TGI [11]: 5.32 µM
GI50 [12]: 0.213 µM
TGI [12]: 0.479 µM
GI50 [13]: 2.05 µM
TGI [13]: 5.28 µM
GI50 [14]: 1.07 µM
TGI [14]: 2.95 µM
GI50 [15]: 1.78 µM
TGI [15]: 4.24 µM
GI50 [16]: 1.84 µM
TGI [16]: 3.33 µM
GI50 [17]: 1.43 µM
TGI [17]: 3 µM
GI50 [18]: 1.95 µM
TGI [18]: 4.2 µM
GI50 [19]: 1.55 µM
TGI [19]: 3.19 µM
GI50 [20]: 1.28 µM
TGI [20]: 4.07 µM
GI50 [21]: 0.635 µM
TGI [21]: 2.3 µM
GI50 [22]: 3.82 µM
TGI [22]: 15.3 µM
GI50 [23]: 2.86 µM
TGI [23]: 8.69 µM
GI50 [24]: 1.7 µM
TGI [24]: 3.36 µM
GI50 [25]: 1.19 µM
TGI [25]: 2.78 µM
GI50 [26]: 3.03 µM
TGI [26]: 11.2 µM
GI50 [27]: 1.91 µM
TGI [27]: 10.5 µM
GI50 [28]: 1.78 µM
TGI [28]: 4.53 µM
GI50 [29]: 12 µM
TGI [29]: 39.2 µM
GI50 [30]: 0.22 µM
TGI [30]: 0.54 µM
GI50 [31]: 2.12 µM
TGI [31]: 7.85 µM
GI50 [32]: 2.15 µM
TGI [32]: 4.96 µM
GI50 [33]: 1.69 µM
TGI [33]: 3.35 µM
GI50 [34]: 2.14 µM
TGI [34]: 8.19 µM
GI50 [35]: 1.42 µM
TGI [35]: 2.99 µM
GI50 [36]: 3.57 µM
TGI [36]: 14.4 µM
GI50 [37]: 0.514 µM
TGI [37]: 1.94 µM
GI50 [38]: 1.68 µM
TGI [38]: 4.66 µM
GI50 [39]: 2.26 µM
TGI [39]: 5.75 µM
GI50 [40]: 2.12 µM
TGI [40]: 10.5 µM
GI50 [41]: 2.18 µM
TGI [41]: 6.26 µM
GI50 [42]: 1.21 µM
TGI [42]: 3.39 µM
GI50 [43]: 1.83 µM
TGI [43]: 4.73 µM
GI50 [44]: 2.07 µM
TGI [44]: 4.67 µM
GI50 [45]: 1.84 µM
TGI [45]: 3.58 µM
GI50 [46]: 0.216 µM
TGI [46]: 0.521 µM
GI50 [47]: 1.91 µM
TGI [47]: 4.54 µM
GI50 [48]: 1.99 µM
TGI [48]: 6.79 µM
GI50 [49]: 3 µM
TGI [49]: 11.3 µM
GI50 [50]: 1.96 µM
TGI [50]: 4.82 µM
GI50 [51]: 3.06 µM
TGI [51]: 14.8 µM
GI50 [52]: 2.22 µM
TGI [52]: 10.9 µM
GI50 [53]: 1.5 µM
TGI [53]: 3.88 µM
GI50 [54]: 2.91 µM
TGI [54]: 12.2 µM
GI50 [55]: 3.19 µM
TGI [55]: 9.31 µM
GI50 [56]: 2.03 µM
TGI [56]: 5.72 µM
GI50 [57]: 3.19 µM
TGI [57]: 12.5 µM
GI50 [58]: 2.18 µM
TGI [58]: 5.64 µM

Cc1cc(I)cc(CNCCCN2CCSCC2)c1O
GI50 [1]: 11.1 µM
TGI [1]: 24.1 µM
GI50 [2]: 17.3 µM
TGI [2]: 33.9 µM
GI50 [3]: 20.3 µM
TGI [3]: 46.7 µM
GI50 [4]: 17.9 µM
TGI [4]: 36.4 µM
GI50 [5]: 14.3 µM
TGI [5]: 28.3 µM
GI50 [6]: 10.4 µM
TGI [6]: 28.5 µM
GI50 [7]: 11.8 µM
TGI [7]: 24.6 µM
GI50 [8]: 17.7 µM
TGI [8]: 36.3 µM
GI50 [9]: 16 µM
TGI [9]: 40.6 µM
GI50 [10]: 13.7 µM
TGI [10]: 28.8 µM
GI50 [11]: 7.57 µM
TGI [11]: 22.3 µM
GI50 [12]: 17.5 µM
TGI [12]: 33.8 µM
GI50 [13]: 15.1 µM
TGI [13]: 33.9 µM
GI50 [14]: 18.7 µM
TGI [14]: 39.2 µM
GI50 [15]: 15.9 µM
TGI [15]: 41.7 µM
GI50 [16]: 13 µM
TGI [16]: 25.8 µM
GI50 [17]: 10.7 µM
TGI [17]: 22.5 µM
GI50 [18]: 12.7 µM
TGI [18]: 26.9 µM
GI50 [19]: 13.9 µM
TGI [19]: 28.4 µM
GI50 [20]: 15.1 µM
TGI [20]: 31.6 µM
GI50 [21]: 14.3 µM
TGI [21]: 29.5 µM
GI50 [22]: 18.6 µM
TGI [22]: 35.4 µM
GI50 [23]: 16.6 µM
TGI [23]: 34.1 µM
GI50 [24]: 14.3 µM
TGI [24]: 41.8 µM
GI50 [25]: 15 µM
TGI [25]: 30.8 µM
GI50 [26]: 20.3 µM
TGI [26]: 42.7 µM
GI50 [27]: 24.5 µM
TGI [27]: 79.8 µM
GI50 [28]: 14 µM
TGI [28]: 27.8 µM
GI50 [29]: 18.1 µM
TGI [29]: 36.6 µM
GI50 [30]: 14.6 µM
TGI [30]: 28.4 µM
GI50 [31]: 20.9 µM
TGI [31]: 63.7 µM
GI50 [32]: 12.7 µM
TGI [32]: 30.9 µM
GI50 [33]: 16.8 µM
TGI [33]: 30.8 µM
GI50 [34]: 18.4 µM
TGI [34]: 36.5 µM
GI50 [35]: 11.1 µM
TGI [35]: 23 µM
GI50 [36]: 17.2 µM
TGI [36]: 36.4 µM
GI50 [37]: 16.5 µM
TGI [37]: 30.3 µM
GI50 [38]: 13.6 µM
TGI [38]: 26.6 µM
GI50 [39]: 17 µM
TGI [39]: 32.4 µM
GI50 [40]: 16.4 µM
TGI [40]: 31 µM
GI50 [41]: 14.1 µM
TGI [41]: 27.7 µM
GI50 [42]: 15.1 µM
TGI [42]: 32.7 µM
GI50 [43]: 10.4 µM
TGI [43]: 39.9 µM
GI50 [44]: 14.2 µM
TGI [44]: 29.3 µM
GI50 [45]: 5.6 µM
TGI [45]: 20.2 µM
GI50 [46]: 16.9 µM
TGI [46]: 35.9 µM
GI50 [47]: 15.8 µM
TGI [47]: 35.8 µM
GI50 [48]: 19.1 µM
TGI [48]: 50.3 µM
GI50 [49]: 13.8 µM
TGI [49]: 29.7 µM
GI50 [50]: 13.7 µM
TGI [50]: 28.5 µM
GI50 [51]: 12.1 µM
TGI [51]: 26.6 µM
GI50 [52]: 8.4 µM
TGI [52]: 26.1 µM
GI50 [53]: 12.4 µM
TGI [53]: 30.8 µM
GI50 [54]: 17.4 µM
TGI [54]: 34 µM
GI50 [55]: 41.4 µM
TGI [55]: > 100 µM
GI50 [56]: 18.2 µM
TGI [56]: 41.8 µM
GI50 [57]: 18.4 µM
TGI [57]: 41 µM
GI50 [58]: 17.7 µM
TGI [58]: 35.9 µM
